This note sets out measurements from publication PMC12463120, “Phenylalanine‐Based DNA‐Encoded Chemical Libraries for the Discovery of Potent and Selective Small Organic Ligands Against Markers of Cancer and Immune Cells” (Advanced Science, 2025).

Assay [1] addresses T1, human CAIX (hCAIX) (Homo sapiens, UniProt Q16790).
T1 construct: made in house; host or cells: CHO cells
The experiment in a line: Fluorescence polarization (FP) affinity against hCAIX. The note with it: fluorescein derivatives. It counts as binding.
Method: A dilution series of target proteins (i.e., PSMA, GCP3, CAIX, CAII) in the respective formulation buffer were separately prepared in a black 384-well plate (non-binding Greiner small volume plate). Test compounds functionalized with fluorescein were diluted to a concentration between 5 and 10 nM (5 μL) and incubated for 15 min with the protein (final volume corresponding to 10 µL). The fluorophore was excited at 485 nm, and anisotropy was measured at 535 nm on a Spectra Max Paradigm multimode plate reader (Tecan). The experiments were performed in triplicate. KD values measured using this FP method can differ from dissociation constants obtained by other physical methods (e.g., surface plasmon resonance, see section below).

The target of assay [2] is bovine CAII (bCAII) (Bos taurus, UniProt P00921). Kind of assay: Fluorescence polarization (FP) affinity against bCAII. It is filed as binding. The method, then:
(§1) Selection results were decoded with C++^[ [61] ^] and visualized using MATLAB R2019b (MathWorks). EFs were calculated by dividing the DNA sequence counts for each hit compound by the average DNA sequence count from the corresponding DEL screening. Additionally, Z‐score values were calculated following methods previously published,^[ [60] ^] as present in Supporting Information. Hit compounds with high EFs in the target protein selections and low EFs in the negative controls (anti‐target and streptavidin selections) were selected for hit validation activities. All compounds were synthesized using either solid‐phase peptide synthesis or solution‐phase methodologies. Affinities of fluorescein‐bearing hits were determined by FP or ELISA measurements. […] Binding kinetics were assessed on a Biacore X100 instrument with the target protein immobilized on a CM5 chip at 4′000 RUs. Cell binding of fluorescent ligands was evaluated using flow cytometry against antigen‐positive and antigen‐negative (wild‐type) cancer cells. in vitro tissue uptake of ^177Lu‐labelled DOTAGA PSMA‐radioligands was measured via autoradiography. […]
(§2) Protein dissolved in PBS or HEPES buffer was incubated for 30-60 min with 5 equiv. of EZ-LinkTM NHS-LC-Biotin (Thermo Fisher Scientific, #21336). […] The fractions were measured (absorption at 280 nm) on a Nanodrop 2000 Spectrophotometer to combine protein-containing fractions. […]
(In general: Fluorescence polarisation rises when a labelled molecule tumbles more slowly, as on binding a larger partner.)

The target of assay [3] is murine CAIX (mCAIX) (Mus musculus, UniProt Q8VHB5). Kind of assay: Fluorescence polarization (FP) affinity against mCAIX. It is filed as binding. As to the method:
as §1, §2

Assay [4] deals with SK-RC-52 renal cell carcinoma cells. Kind of assay: Flow cytometry on SK-RC-52 cells. It is filed as cell-based. The conditions noted are these: 100 nM.
The target of assay [5] is T2, recombinant human ACP3 (Homo sapiens, UniProt P15309).
T2 construct: made in house; host or cells: CHO cells
T2 sequence (P15309 33-386): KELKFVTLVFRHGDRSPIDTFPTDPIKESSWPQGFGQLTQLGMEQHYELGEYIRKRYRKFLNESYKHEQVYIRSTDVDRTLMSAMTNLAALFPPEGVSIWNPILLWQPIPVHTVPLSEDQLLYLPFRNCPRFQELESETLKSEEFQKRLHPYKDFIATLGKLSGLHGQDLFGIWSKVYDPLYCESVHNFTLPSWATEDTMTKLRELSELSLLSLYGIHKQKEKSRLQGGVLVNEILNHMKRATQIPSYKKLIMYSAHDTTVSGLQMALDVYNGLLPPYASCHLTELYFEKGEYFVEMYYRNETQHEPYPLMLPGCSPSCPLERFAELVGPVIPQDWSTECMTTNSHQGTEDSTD
The experiment in a line: Fluorescence polarization (FP) affinity against human ACP3. It counts as binding. The conditions noted are these: PSMA ligands as negative controls. As to the method: Selection results were decoded with C++^[ [61] ^] and visualized using MATLAB R2019b (MathWorks). EFs were calculated by dividing the DNA sequence counts for each hit compound by the average DNA sequence count from the corresponding DEL screening. Additionally, Z‐score values were calculated following methods previously published,^[ [60] ^] as present in Supporting Information. Hit compounds with high EFs in the target protein selections and low EFs in the negative controls (anti‐target and streptavidin selections) were selected for hit validation activities. All compounds were synthesized using either solid‐phase peptide synthesis or solution‐phase methodologies. Affinities of fluorescein‐bearing hits were determined by FP or ELISA measurements. […] ACP3 colorimetric inhibition assay was performed with serially diluted compounds at a fixed concentration (5 mM in PBS) of para‐nitrophenyl phosphate as substrate. Binding kinetics were assessed on a Biacore X100 instrument with the target protein immobilized on a CM5 chip at 4′000 RUs. Cell binding of fluorescent ligands was evaluated using flow cytometry against antigen‐positive and antigen‐negative (wild‐type) cancer cells. in vitro tissue uptake of ^177Lu‐labelled DOTAGA PSMA‐radioligands was measured via autoradiography. Prism 9 software (GraphPad Software) was used for data analysis of FP, ELISA, PD‐10, SPR, and enzymatic assay measurements. […]
(§3) The protein was then concentrated using Vivaspin® 20 centrifugal concentrators (30’000 Da molecular weight cutoff, Sartorius, #VS2012) and then purified by SEC or PD-10 column. The fractions were measured (absorption at 280 nm) on a Nanodrop 2000 Spectrophotometer to combine protein-containing fractions. […]
as §2
(§4) 2.11 Fluorescence polarization (FP) measurements with fluoresceine-labelled […]

The target in assay [6] is T3, PSMA (Homo sapiens, UniProt Q04609).
T3 construct: Avi-tag; made in house; host or cells: CHO cells
The experiment in a line: Fluorescence polarization (FP) affinity against PSMA. The conditions noted are these: fluoresceinated compounds. It is filed as binding. The method, then:
(§5) Hits obtained from FM‐DEL1 (A1452 and A3113) and FM‐DEL2 (A3113/B423) were re‐synthesized as stereo‐chemically pure off‐DNA compounds derivatized with a C6 linker featuring a fluorescein moiety (coupled to fluorescein isothiocyanate‐FITC) (compounds 1–6) [Figure 2E]. The binding affinity against PSMA and GCP3 (KD) of fluoresceinated compounds 1–6 was measured by fluorescence polarization (FP). […] The superiority of compound 5 (S‐configuration) in binding PSMA over compound 6 (R‐configuration) was confirmed by molecular docking studies [Figure S48, Supporting Information]. […] The presence of the sole building block A3113 on the 3‐iodo‐phenylalanine scaffold in the S‐configuration gives adequate selectivity for PSMA over GCP3. The addition of the second building block (B423) enhances both affinity and selectivity for the target.
as §1, with “Hit compounds with high EFs in the target protein selections and low EFs in the negative controls (anti‐target and streptavidin selections) were selected for hit validation activities. All compounds were synthesized using either solid‐phase peptide synthesis or solution‐phase methodologies.” left out
as §3, §4

Assay [7] has as its system HT-1080.hPSMA tumor cells. The experiment in a line: Flow cytometry on HT-1080.hPSMA cells. The conditions noted are these: 250 nM. It counts as cell-based. The method, then:
Selection results were decoded with C++^[ [61] ^] and visualized using MATLAB R2019b (MathWorks). EFs were calculated by dividing the DNA sequence counts for each hit compound by the average DNA sequence count from the corresponding DEL screening. Additionally, Z‐score values were calculated following methods previously published,^[ [60] ^] as present in Supporting Information. Hit compounds with high EFs in the target protein selections and low EFs in the negative controls (anti‐target and streptavidin selections) were selected for hit validation activities. All compounds were synthesized using either solid‐phase peptide synthesis or solution‐phase methodologies. Affinities of fluorescein‐bearing hits were determined by FP or ELISA measurements. […] ACP3 colorimetric inhibition assay was performed with serially diluted compounds at a fixed concentration (5 mM in PBS) of para‐nitrophenyl phosphate as substrate. Binding kinetics were assessed on a Biacore X100 instrument with the target protein immobilized on a CM5 chip at 4′000 RUs. Cell binding of fluorescent ligands was evaluated using flow cytometry against antigen‐positive and antigen‐negative (wild‐type) cancer cells. in vitro tissue uptake of ^177Lu‐labelled DOTAGA PSMA‐radioligands was measured via autoradiography. Prism 9 software (GraphPad Software) was used for data analysis of FP, ELISA, PD‐10, SPR, and enzymatic assay measurements. SPR sensograms were fitted with the Biacore X100 Evaluation Software. Flow cytometry data was processed with the FlowJo 10.4 software.
HT1080.hPSMA and PC3.hACP3 cell lines were generated by lentiviral transduction on wild type cells (HT1080.wt and PC3.wt), according to published procedures9. […]
Cancer cells were detached with an Accutase® cell detachment solution, resuspended in a standard culture medium, and transferred to falcon tubes. Cells were counted and centrifuged at 400 rcf for 3 min. […] Data were acquired halting the measurement at 10´ 000 events on a Cytoflex S flow cytometer (Beckman Coulter), and analyzed using the FlowJo software v10 (BD Biosciences). […]
Background: In flow cytometry, cells or beads pass a laser one at a time.

Assay [8] addresses T4, GCP3 (Homo sapiens, UniProt Q9Y3Q0).
T4 construct: Avi-tag; made in house; host or cells: CHO cells
Kind of assay: Fluorescence polarization (FP) affinity against GCP3. It counts as binding. The conditions noted are these: fluoresceinated compounds. The method, then: as §5, with “The addition of the second building block (B423) enhances both affinity and selectivity for the target.” left out
Selection results were decoded with C++^[ [61] ^] and visualized using MATLAB R2019b (MathWorks). EFs were calculated by dividing the DNA sequence counts for each hit compound by the average DNA sequence count from the corresponding DEL screening. Additionally, Z‐score values were calculated following methods previously published,^[ [60] ^] as present in Supporting Information. […] Affinities of fluorescein‐bearing hits were determined by FP or ELISA measurements. […] Binding kinetics were assessed on a Biacore X100 instrument with the target protein immobilized on a CM5 chip at 4′000 RUs. […]
as §4

Assay [9] addresses T3, PSMA. Kind of assay: Size-exclusion chromatography co-elution with PSMA. It is filed as binding. The note with it: recombinant PSMA vs GCP3. As to the method:
as §1, §2
In general terms: SEC sorts molecules by how far they enter the pores of the column.

T3 sequence (Q04609 whole entry): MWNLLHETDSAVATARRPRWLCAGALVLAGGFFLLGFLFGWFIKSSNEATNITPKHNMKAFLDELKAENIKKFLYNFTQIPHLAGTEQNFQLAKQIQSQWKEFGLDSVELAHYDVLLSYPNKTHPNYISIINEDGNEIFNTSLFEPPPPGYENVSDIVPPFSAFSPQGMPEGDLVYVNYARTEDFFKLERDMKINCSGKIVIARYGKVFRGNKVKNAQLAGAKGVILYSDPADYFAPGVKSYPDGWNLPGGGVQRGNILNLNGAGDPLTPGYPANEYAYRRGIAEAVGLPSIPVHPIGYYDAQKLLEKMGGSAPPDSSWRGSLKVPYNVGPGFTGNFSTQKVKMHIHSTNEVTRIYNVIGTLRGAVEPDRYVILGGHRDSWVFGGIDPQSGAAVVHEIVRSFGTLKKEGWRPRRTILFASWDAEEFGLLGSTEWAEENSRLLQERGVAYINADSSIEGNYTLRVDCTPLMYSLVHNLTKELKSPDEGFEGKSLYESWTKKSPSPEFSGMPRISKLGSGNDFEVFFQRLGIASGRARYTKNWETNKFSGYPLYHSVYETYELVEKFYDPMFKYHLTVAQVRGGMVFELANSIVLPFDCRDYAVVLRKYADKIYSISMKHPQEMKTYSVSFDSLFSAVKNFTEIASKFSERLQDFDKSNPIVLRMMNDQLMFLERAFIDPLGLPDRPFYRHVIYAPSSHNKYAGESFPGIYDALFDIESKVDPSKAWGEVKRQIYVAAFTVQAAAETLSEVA
T4 sequence (Q9Y3Q0 whole entry): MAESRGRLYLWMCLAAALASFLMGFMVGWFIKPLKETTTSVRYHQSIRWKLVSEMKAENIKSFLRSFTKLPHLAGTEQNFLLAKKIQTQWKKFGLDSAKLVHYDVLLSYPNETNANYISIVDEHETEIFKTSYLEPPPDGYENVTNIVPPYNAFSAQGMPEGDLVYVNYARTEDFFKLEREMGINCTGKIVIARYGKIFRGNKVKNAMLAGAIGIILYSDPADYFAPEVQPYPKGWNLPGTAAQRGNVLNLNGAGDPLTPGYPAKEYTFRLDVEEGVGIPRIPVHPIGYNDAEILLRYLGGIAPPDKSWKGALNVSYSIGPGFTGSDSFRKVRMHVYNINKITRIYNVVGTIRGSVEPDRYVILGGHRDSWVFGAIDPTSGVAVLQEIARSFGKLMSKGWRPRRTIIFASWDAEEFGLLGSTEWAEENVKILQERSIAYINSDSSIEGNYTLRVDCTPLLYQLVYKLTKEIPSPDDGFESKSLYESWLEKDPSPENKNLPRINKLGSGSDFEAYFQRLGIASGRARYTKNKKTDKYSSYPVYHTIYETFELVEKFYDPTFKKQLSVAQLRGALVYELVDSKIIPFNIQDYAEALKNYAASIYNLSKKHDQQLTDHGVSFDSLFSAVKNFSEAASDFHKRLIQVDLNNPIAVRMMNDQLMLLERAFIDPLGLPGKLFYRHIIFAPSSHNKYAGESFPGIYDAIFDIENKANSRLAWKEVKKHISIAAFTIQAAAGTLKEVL
Sequence of bovine CAII (bCAII) (P00921 whole entry): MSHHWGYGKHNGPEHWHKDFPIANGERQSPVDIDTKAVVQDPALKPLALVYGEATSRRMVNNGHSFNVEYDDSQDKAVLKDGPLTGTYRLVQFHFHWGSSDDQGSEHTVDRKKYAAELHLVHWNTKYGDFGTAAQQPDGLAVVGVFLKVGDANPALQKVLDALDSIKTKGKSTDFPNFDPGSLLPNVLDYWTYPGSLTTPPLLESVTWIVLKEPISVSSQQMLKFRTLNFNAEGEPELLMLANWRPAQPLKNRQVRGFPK
Sequence of murine CAIX (mCAIX) (Q8VHB5 32-437): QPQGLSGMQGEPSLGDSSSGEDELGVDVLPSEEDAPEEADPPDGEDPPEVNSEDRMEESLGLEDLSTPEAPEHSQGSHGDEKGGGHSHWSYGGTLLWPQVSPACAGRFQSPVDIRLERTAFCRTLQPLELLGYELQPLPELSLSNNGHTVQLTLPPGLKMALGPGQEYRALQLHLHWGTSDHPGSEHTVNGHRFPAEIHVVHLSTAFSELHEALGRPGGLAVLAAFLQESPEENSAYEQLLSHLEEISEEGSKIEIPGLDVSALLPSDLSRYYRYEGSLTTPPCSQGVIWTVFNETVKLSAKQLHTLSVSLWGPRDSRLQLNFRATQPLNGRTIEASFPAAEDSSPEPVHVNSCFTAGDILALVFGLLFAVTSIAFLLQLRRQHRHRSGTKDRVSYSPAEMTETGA

What is called Kd is the equilibrium constant for the complex coming apart. As to `NS(=O)(=O)c1ccc(-c2cccc(C[C@@H](NC(=O)CCC(=O)N[C@@H](CCCCNC(=S)Nc3ccc4c(c3)C(=O)OC43c4ccc(O)cc4Oc4cc(O)ccc43)C(=O)O)C(=O)NCC3(c4cccs4)CCOCC3)c2)cc1` [compound 21], the results for the equilibrium dissociation constant (Kd) in [1], in [2] and in assay [3] were 0.95 nM, 150 nM and 8.73 nM, respectively. For the same molecule, the “binding to CAIX on the cell surface by flow cytometry” value in assay [4] is reported as “bound to the antigen expressed on the surface of cancer cells”.
Regarding `O=C(O)CC[C@H](NC(=O)N[C@@H](Cc1ccc(I)cc1)C(=O)NCCCCCCNC(=S)Nc1ccc2c(c1)C(=O)OC21c2ccc(O)cc2Oc2cc(O)ccc21)C(=O)O` [compound 1], the “binding to human ACP3 by FP” value in assay [5] is “did not bind”. In addition, the Kd in [6] worked out at 87 nM; in assay [8], 81 nM. For the same molecule, the “binding to PSMA on the cell surface by flow cytometry” value (“binding to PSMA on the cell surface” for short) in assay [7] was “only compound 5 was able to bind”.
As for `CCOc1ccccc1-c1cccc(C[C@H](NC(=O)N[C@@H](CCC(=O)O)C(=O)O)C(=O)NCCCCCCNC(=S)Nc2ccc3c(c2)C(=O)OC32c3ccc(O)cc3Oc3cc(O)ccc32)c1` [compound 5], the “binding to human ACP3 by FP” value in assay [5] is given as “did not bind”. In [6], the Kd was 13 nM. Further, the “binding to PSMA on the cell surface” value in assay [7] is on record as “able to bind to the antigen expressed on the tumor cell surface”. Further, in assay [9], the “co-elution with PSMA in size-exclusion chromatography” value was “selective and kinetically stable interaction with PSMA”.
Turning to `O=C(O)CC[C@H](NC(=O)N[C@@H](Cc1cccc(I)c1)C(=O)NCCCCCCNC(=S)Nc1ccc2c(c1)C(=O)OC21c2ccc(O)cc2Oc2cc(O)ccc21)C(=O)O` [compound 3], the “binding to human ACP3 by FP” value in assay [5] is given as “did not bind”. The Kd in assay [6] came to 99 nM. The “binding to PSMA on the cell surface” value in assay [7] is recorded as “only compound 5 was able to bind”.
As for `NS(=O)(=O)c1nnc(Nc2cccc(C[C@@H](NC(=O)CCC(=O)N[C@@H](CCCCNC(=S)Nc3ccc4c(c3)C(=O)OC43c4ccc(O)cc4Oc4cc(O)ccc43)C(=O)O)C(=O)NCC3(c4cccs4)CCOCC3)c2)s1` [compound 24], in [1], the affinity, expressed as Kd, was 1.85 nM. Besides, the “binding to CAIX on the cell surface by flow cytometry” value in assay [4] is “bound to the antigen expressed on the surface of cancer cells”.
